The values that follow come from US4956463A, “Pyrimidone compound and pharmaceutically acceptable salts thereof” (Ikeda Mohando Company, Ltd., priority 1987, dated 1990).

Read-outs that look alike come from different tables or passages of the source.

The test system of experiment [1] is Ethanol-Induced Ulcer. Briefly: Inhibitory Effect on Ethanol-Induced Ulcer. Type of experiment: in vivo, male Wister rats. The conditions noted are these: for inhibition in vivo at 30 mg/kg: Rattus norvegicus, po, 1 h, read-out: I.R. of Ethanol-Induced Ulcer. The protocol:
(B) Inhibitory Effect of the Compounds of the Present Invention on Ethanol-Induced Ulcer
This test was performed in the manner similar to the method of Robert A. (Gastroenterology, 1975, Vol. 69, pp. 1045-1047). 30 mg/kg of the compound of this invention was orally administered to male Wister rats having a body weight of about 160 g after 24 hours fasting and after additional 30 minutes, 1 ml/animal of 100% ethanol was orally administered One hour after, the stomach was dissected out and was fixed with formalin, Then, the length of the hemorrhagic ulcers generated at the front portion of the stomach was measured by means of a microscope and these were defined as the coefficient of ulcer (U.C.). [formula]
The results obtained are listed in Table II in which the values found are expressed in the average of 5 measurements.

Experiment [2] has as its system Gastric Acid Secretion Accelerated by Histamine in Pylorus-ligated Rats. Briefly: Inhibitory Effect on Gastric Acid Secretion by Histamine in Pylorus-ligated Rats. Type of experiment: in vivo, male Wister rat. The conditions noted are these: dose 2 mg/kg s.c.; histamine 3 mg/kg s.c. 30 min later; average of 5 measurements; ** P < 0.01 vs control group (all values marked **). The protocol: A male Wister rat having a body weight of about 160 g and which had not fed for 24 hours was anesthetized by an intraperitonea dose of 1.2 g/kg of urethane. After ligating of pylorus and esophagus, gaster anterior was incised and fitted with a double polyethylene wall cannula. The wall of the stomach was rinsed with saline (5 ml each) at 30 minutes intervals, and the amount of gastric acid present in the rinsing solution were determined by titration technique.
The basal amount of secreted gastric acid was initially measured three times, then 2 mg/kg of each of compounds of the invention was administered subcutaneously and 3 mg/kg of histamine was subcutaneously administered after the lapse of an additional 30 minutes.
The quantity of gastric acid secreted after the operation was measured continuously for 3 hours. Within that measurement interval, three time points at which the increase in acid secretion reached a maximum level were selected, and the average quantity of gastric acid secreted at those time points was taken as the increase in acid secretion, which was compared with the increase in acid secretion of the control group to calculate the percent inhibition for secretion of gastric acid. [formula]

Where [3] appears, read: 30 mg/kg p.o., 100% ethanol 1 ml/animal p.o. 30 min later, average of 5 measurements, ** P < 0.01 vs control group (Ex. 18 and Cimetidine unmarked).

Turning to `CN/C(=N/CCSCc1nc[nH]c1C)NC#N` [Cimetidine, reference compound], the inhibition in vivo at 30 mg/kg in experiment [1] is -22.4%. Also, in experiment [1] (in words, as shown in Table II), the “inhibitory effect for damages with ethanol” value is listed as “not observed”. Besides, in experiment [2], the “Gastric Acid Secretion in Rats, Rate of inhibition” value amounted to 70%.

For the molecule `Cc1[nH]c(NC/C=C\COc2cc(CN3CCCCC3)ccn2)nc(=O)c1C` [Ex. 1, 5,6-Dimethyl-2-[4-<4-(1-piperidinomethyl)-pyridyl-2-oxy>-cis-2-butenylamino]-4-(1H)-pyrimidone], the inhibition in vivo at 30 mg/kg in experiment [1] (setting [3]) worked out at 65%. Further, the “Gastric Acid Secretion in Rats, Rate of inhibition” value in experiment [2] came out at 59%.

As to `Cc1[nH]c(NC/C=C\COc2cccc(CN3CCCCC3)c2)nc(=O)c1C` [Ex. 3, 5,6-Dimethyl-2-[4-<3-(1-piperidinomethyl)-phenoxy>-cis-2-butenylamino]-4-(1H)-pyrimidone], in experiment [1] (setting [3]), the inhibition in vivo at 30 mg/kg was 80%. Also, the “Gastric Acid Secretion in Rats, Rate of inhibition” value in experiment [2] was 70%.

With `CCCCCCCc1c(C)[nH]c(NC/C=C\COc2cccc(CN3CCCCC3)c2)nc1=O` [Ex. 7], in experiment [1] (setting [3]), the inhibition in vivo at 30 mg/kg turned out to be 61%.

Take `CCCCCCCCCCCCc1c(C)[nH]c(NC/C=C\COc2cccc(CN3CCCCC3)c2)nc1=O` [Ex. 10, 5-Dodecyl-6-methyl-2-[4-<3-(1-piperidinomethyl)-phenoxy>-cis-2-butenylamino]-4-(1H)-pyrimidone]: in experiment [1] (setting [3]), the inhibition in vivo at 30 mg/kg was 73%. In experiment [2], the “Gastric Acid Secretion in Rats, Rate of inhibition” value is given as 36%.

`Cc1[nH]c(NC/C=C\COc2cc(CN3CCCCC3)ccn2)nc(=O)c1CCc1ccccc1` [Ex. 11, 5-Phenethyl-6-methyl-2-[4-<4-(1-piperidinomethyl)-pyridyl-2-oxy>-cis-2-butenylamino]-4-(1H)-pyrimidone]: in experiment [1] (setting [3]), the inhibition in vivo at 30 mg/kg worked out at 79%. The “Gastric Acid Secretion in Rats, Rate of inhibition” value in experiment [2] worked out at 47%.

For the molecule `Cc1[nH]c(NC/C=C\COc2cc(CN3CCCCC3)ccn2)nc(=O)c1Cc1ccccc1` [Ex. 13], the inhibition in vivo at 30 mg/kg in experiment [1] (setting [3]) was found to be 56%.

As for `Cc1[nH]c(NC/C=C\COc2cccc(CN3CCCCC3)c2)nc(=O)c1Cc1ccccc1` [Ex. 14, 5-Benzyl-6-methyl-2-[4-<3-(I-piperidinomethyl)-phenoxy>-cis-2-butenylamino]-4-(1H)-pyrimidone], the inhibition in vivo at 30 mg/kg in experiment [1] (setting [3]) worked out at 87%.

Turning to `Cc1[nH]c(NC/C=C\COc2cc(CN3CCCCC3)ccn2)nc(=O)c1Cc1ccc2c(c1)OCO2` [Ex. 16, 5-(3,4-methylenedioxy)-benzyl-6-methyl-2-[4-<4-(1-piperidinomethyl)-pyridyl-2-oxy>-cis-2-butenylamino]-4-(1H)-pyrimidone], the inhibition in vivo at 30 mg/kg in experiment [1] (setting [3]) was 58%.

For the molecule `COc1ccc(Cc2c(C)[nH]c(NC/C=C\COc3cccc(CN4CCCCC4)c3)nc2=O)cc1` [Ex. 17, 5-(p-methoxybenzyl)-6-methyl-2-[4-<3-(1-piperidino-methyl)-phenoxy>-cis-2-butenylamino]-4-(1H)-pyrimidone], the inhibition in vivo at 30 mg/kg in experiment [1] (setting [3]) was 78%.

`CCCc1[nH]c(NC/C=C\COc2cccc(CN3CCCCC3)c2)nc(=O)c1Cc1ccc2c(c1)OCO2` [Ex. 18]: the inhibition in vivo at 30 mg/kg in experiment [1] (setting [3]) turned out to be 45%.
